Test results: ChEMBL document CHEMBL1201862, “PubChem BioAssay data set” (2004)
Values belong to the compound of their own block, whether it stands above or below them. Activity calls are given as the source filed them.

Assays:
[1] = biological target: T1, Sentrin-specific protease 6 (Homo sapiens, UniProt Q9GZR1); assay: SAR Analysis of small molecule inhibitors of Sentrin-specific protease 6 (SENP6) using a Luminescent assay. [Related pubchem assays (depositor defined):AID2582, AID2599]; type: functional
T1 sequence (Q9GZR1 whole entry): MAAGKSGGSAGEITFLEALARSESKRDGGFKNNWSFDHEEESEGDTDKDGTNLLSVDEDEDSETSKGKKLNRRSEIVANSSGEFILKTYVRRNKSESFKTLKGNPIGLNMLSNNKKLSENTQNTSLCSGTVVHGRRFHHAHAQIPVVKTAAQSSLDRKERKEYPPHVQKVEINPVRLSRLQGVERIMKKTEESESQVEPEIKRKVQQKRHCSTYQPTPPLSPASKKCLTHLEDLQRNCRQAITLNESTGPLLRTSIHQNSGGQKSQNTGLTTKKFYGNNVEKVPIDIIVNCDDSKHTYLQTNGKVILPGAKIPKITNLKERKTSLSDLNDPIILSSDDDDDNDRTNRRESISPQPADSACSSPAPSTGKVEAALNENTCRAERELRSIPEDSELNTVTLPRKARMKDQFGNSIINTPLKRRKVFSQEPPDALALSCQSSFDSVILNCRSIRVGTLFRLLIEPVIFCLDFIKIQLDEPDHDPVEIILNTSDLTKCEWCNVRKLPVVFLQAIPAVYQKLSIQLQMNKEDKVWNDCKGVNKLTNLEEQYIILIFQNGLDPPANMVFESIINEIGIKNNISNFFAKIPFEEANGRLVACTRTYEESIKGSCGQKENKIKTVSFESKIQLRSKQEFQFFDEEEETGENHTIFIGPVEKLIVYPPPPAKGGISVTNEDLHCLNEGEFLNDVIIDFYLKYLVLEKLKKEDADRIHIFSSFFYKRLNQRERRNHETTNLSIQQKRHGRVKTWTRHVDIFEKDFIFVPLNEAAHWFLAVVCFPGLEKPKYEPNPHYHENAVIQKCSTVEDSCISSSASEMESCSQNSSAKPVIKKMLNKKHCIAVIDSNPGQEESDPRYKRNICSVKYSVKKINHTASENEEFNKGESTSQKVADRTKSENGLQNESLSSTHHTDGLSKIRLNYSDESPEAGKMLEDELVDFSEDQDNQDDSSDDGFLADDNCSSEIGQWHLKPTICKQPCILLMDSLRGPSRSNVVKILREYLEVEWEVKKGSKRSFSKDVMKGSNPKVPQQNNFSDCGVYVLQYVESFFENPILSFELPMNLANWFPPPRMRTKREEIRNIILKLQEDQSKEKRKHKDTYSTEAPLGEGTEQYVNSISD

[2] = biological target: T2, Caspase-3 (Homo sapiens, UniProt P42574); assay: SAR Analysis of small molecule inhibitors of Sentrin-specific proteases (SENPs) using a Caspase-3 Selectivity assay. [Related pubchem assays (depositor defined):AID2540, AID2599, AID434973, AID489001]; type: functional
T2 sequence (P42574 whole entry): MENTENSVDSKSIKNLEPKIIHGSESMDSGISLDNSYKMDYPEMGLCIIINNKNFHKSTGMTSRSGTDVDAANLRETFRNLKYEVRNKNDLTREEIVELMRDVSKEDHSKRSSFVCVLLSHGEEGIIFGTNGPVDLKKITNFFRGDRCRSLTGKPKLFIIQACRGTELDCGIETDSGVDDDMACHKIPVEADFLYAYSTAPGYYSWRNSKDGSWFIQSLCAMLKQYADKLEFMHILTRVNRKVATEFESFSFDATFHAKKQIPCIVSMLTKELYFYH

[3] = biological target: T3, Sentrin-specific protease 8 (Homo sapiens, UniProt Q96LD8); assay: SENP8 protease inhibitors, SAR follow-up, biochemical, luminescence (AID 504501); type: functional
T3 sequence (Q96LD8 whole entry): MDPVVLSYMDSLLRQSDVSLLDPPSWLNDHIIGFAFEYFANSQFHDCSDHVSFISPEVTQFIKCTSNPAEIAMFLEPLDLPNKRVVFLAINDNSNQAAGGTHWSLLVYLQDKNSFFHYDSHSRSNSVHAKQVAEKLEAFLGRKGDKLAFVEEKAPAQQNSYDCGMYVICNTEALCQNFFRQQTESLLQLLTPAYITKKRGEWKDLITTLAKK

[4] = biological target: T4, Sentrin-specific protease 7 (Homo sapiens, UniProt Q9BQF6); assay: SENP7 protease inhibitors, SAR follow-up, biochemical, luminescence (AID 504497); type: functional
T4 sequence (Q9BQF6 whole entry): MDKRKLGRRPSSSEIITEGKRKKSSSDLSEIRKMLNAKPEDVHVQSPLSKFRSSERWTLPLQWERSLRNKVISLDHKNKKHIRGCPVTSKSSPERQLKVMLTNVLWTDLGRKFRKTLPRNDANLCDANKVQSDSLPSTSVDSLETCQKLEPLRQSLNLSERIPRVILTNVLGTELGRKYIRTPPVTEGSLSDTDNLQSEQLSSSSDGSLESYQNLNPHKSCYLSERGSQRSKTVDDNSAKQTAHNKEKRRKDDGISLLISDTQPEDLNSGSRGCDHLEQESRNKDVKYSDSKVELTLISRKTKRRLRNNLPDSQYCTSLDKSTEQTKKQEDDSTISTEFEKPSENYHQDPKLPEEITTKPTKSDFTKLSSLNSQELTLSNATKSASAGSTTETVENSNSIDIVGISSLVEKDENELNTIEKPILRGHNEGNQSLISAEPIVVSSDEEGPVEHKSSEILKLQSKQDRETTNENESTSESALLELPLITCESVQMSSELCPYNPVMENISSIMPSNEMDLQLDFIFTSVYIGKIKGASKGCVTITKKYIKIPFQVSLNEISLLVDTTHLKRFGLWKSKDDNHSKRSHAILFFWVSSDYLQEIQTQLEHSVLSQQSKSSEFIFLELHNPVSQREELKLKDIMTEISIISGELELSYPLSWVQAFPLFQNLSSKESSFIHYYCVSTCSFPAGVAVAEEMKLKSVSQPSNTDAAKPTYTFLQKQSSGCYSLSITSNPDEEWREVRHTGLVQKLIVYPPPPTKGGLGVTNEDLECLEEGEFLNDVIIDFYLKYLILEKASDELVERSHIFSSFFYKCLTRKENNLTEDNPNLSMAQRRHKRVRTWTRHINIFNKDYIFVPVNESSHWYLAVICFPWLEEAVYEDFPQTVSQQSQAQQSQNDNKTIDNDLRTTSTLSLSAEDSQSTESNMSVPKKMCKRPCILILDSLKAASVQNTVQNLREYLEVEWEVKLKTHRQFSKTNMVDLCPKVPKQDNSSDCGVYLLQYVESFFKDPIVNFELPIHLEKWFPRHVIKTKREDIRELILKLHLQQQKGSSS

[5] = biological target: Induced myeloid leukemia cell differentiation protein Mcl-1 (Homo sapiens, UniProt Q07820); type: functional
[6] = biological target: DNA (cytosine-5)-methyltransferase 1 (Homo sapiens, UniProt P26358); assay: DNMT1 methyltransferase inhibitors, confirmation, biochemical, fluorescent molecular beacon (AID 602386); type: functional
[7] = tested on: Streptococcus; assay: Group A Streptococcus viability loss, dose response, counter-screen for streptokinase expression inhibitor project, luminescence, BacTiterGlo (AID 1915); type: functional, organism-based;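 note: potency for reduction of bacterial viability or growth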
[8] = Luminescence Cell-Based Dose Retest to Confirm Inhibitors of Cancer Stem Cells. [Related pubchem assays (depositor defined):AID2717, AID2721]; type: functional; settings: Homo sapiens
[9] = tested on: Streptococcus sp. 'group A'; assay: growth inhibition of control SK(-) GAS strain, dose response, counter-screen for streptokinase expression inhibitor project, luminescence, kanamycin, BacTiterGlo, confirmation (AID 1900); type: functional, organism-based
[10] = biological target: T5, Estrogen receptor beta (Homo sapiens, UniProt Q92731);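 note: recombinant ER-beta bound to coactivator SRC1 peptide in presence of estradiol agonist; inhibitors block coactivator peptide binding and lower the FRET signal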
[11] = biological target: T6, Aminopeptidase N (Plasmodium falciparum FcB1/Columbia, UniProt O96935); assay: P. falciparum M1AAP inhibitors, biochemical, fluorogenic H-Leu-NHMec substrate, 1536-well (AID 1445); set-up: species or system Plasmodium falciparum 3D7, 3D7
T6 sequence (O96935 whole entry): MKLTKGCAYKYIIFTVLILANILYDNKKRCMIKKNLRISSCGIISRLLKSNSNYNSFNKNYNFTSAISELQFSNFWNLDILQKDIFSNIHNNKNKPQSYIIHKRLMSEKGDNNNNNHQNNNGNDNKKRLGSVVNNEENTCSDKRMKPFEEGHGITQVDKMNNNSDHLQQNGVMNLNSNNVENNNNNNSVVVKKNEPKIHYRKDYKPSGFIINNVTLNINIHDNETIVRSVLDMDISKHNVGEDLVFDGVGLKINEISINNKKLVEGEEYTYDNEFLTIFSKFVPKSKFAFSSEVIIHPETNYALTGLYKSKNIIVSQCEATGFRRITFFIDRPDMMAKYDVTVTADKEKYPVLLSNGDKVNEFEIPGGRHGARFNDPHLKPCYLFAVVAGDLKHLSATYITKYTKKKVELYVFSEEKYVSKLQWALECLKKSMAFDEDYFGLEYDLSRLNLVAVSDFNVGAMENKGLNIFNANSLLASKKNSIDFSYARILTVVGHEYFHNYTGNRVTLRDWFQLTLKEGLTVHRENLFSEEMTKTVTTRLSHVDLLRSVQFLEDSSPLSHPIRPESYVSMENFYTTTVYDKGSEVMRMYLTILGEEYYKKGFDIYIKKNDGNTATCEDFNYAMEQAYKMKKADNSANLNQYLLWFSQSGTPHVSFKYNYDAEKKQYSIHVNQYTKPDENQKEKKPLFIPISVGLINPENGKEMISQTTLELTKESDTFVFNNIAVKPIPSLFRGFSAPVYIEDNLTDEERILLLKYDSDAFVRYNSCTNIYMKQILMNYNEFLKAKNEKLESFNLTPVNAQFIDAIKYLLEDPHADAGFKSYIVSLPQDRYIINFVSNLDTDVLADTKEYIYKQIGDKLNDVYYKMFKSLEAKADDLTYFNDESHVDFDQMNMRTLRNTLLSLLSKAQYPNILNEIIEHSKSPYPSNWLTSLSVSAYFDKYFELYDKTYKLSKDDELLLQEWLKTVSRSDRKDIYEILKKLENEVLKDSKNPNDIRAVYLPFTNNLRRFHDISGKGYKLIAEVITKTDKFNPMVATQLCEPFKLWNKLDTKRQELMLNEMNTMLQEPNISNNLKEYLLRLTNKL

[12] = biological target: T7, Probable nicotinate-nucleotide adenylyltransferase (Staphylococcus aureus (strain N315), UniProt P65502); type: functional, Staphylococcus aureus subsp. aureus N315;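 for IC50 Mean: confirmatory dose-response retesting of NadD inhibitor hits first found in an ultra-high-throughput screen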
[13] = biological target: T7, Probable nicotinate-nucleotide adenylyltransferase; type: functional, Staphylococcus aureus subsp. aureus N315; settings: read-out: IC50_Mean
[14] = biological target: T5, Estrogen receptor beta; assay: ERβ–SRC-3 coactivator interaction inhibitors, confirmation, orthogonal assay, biochemical, ELISA, streptavidin-HRP readout (AID 1060)
[15] = biological target: Protein Wnt-3a (Mus musculus, UniProt P27467); assay: Wnt3a-driven reporter signaling inhibition, dose response, selectivity assay for Gli-SUFU antagonist project, Wnt-LIGHT cells, luminescence (AID 651570); type: functional; settings: read-out: IC50_Mean;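 note: Wnt-LIGHT reporter cells stimulated with conditioned medium from Wnt3a-producing cells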
[16] = biological target: T8, Interleukin-8 (Homo sapiens, UniProt P10145); assay: Dose Response confirmation of uHTS small molecule hits for cystic fibrosis induced NFkb Inhibitors in a PAF-induced IL8 counterscreen.; type: functional; settings: read-out: IC50_Mean
T8 sequence (P10145 whole entry): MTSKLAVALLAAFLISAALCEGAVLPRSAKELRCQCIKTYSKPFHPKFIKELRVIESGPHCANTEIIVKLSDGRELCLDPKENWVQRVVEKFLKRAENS
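Throughout, for AC50: cells exposed to compound for roughly 70 hours or longer before luminescence read.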

T5 sequence (Q92731 whole entry): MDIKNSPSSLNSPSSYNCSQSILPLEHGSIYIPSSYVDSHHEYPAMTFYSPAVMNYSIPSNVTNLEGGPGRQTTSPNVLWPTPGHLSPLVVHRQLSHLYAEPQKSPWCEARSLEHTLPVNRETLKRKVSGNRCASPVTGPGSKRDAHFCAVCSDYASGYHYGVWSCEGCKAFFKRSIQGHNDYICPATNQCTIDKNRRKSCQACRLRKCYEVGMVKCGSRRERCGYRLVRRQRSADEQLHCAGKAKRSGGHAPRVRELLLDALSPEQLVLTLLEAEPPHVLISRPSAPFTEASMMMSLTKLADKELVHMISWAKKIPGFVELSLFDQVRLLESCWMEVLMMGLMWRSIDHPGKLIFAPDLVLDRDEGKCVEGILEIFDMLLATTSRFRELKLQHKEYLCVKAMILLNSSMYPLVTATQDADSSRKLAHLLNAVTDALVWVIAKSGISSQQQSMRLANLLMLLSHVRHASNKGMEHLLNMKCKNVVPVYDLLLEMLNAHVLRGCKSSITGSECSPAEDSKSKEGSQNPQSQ
Chain of Protein Wnt-3a (P27467 whole entry): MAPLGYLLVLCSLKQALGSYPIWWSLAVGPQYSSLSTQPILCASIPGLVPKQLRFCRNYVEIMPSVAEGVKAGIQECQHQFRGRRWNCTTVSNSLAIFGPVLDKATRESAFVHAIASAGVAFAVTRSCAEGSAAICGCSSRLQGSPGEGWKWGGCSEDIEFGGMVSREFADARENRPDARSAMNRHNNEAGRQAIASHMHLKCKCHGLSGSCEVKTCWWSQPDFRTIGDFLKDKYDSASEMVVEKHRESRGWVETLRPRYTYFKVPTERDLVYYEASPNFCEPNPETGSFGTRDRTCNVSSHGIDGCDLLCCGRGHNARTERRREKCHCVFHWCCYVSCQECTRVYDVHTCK
Chain of DNA (cytosine-5)-methyltransferase 1 (P26358 whole entry): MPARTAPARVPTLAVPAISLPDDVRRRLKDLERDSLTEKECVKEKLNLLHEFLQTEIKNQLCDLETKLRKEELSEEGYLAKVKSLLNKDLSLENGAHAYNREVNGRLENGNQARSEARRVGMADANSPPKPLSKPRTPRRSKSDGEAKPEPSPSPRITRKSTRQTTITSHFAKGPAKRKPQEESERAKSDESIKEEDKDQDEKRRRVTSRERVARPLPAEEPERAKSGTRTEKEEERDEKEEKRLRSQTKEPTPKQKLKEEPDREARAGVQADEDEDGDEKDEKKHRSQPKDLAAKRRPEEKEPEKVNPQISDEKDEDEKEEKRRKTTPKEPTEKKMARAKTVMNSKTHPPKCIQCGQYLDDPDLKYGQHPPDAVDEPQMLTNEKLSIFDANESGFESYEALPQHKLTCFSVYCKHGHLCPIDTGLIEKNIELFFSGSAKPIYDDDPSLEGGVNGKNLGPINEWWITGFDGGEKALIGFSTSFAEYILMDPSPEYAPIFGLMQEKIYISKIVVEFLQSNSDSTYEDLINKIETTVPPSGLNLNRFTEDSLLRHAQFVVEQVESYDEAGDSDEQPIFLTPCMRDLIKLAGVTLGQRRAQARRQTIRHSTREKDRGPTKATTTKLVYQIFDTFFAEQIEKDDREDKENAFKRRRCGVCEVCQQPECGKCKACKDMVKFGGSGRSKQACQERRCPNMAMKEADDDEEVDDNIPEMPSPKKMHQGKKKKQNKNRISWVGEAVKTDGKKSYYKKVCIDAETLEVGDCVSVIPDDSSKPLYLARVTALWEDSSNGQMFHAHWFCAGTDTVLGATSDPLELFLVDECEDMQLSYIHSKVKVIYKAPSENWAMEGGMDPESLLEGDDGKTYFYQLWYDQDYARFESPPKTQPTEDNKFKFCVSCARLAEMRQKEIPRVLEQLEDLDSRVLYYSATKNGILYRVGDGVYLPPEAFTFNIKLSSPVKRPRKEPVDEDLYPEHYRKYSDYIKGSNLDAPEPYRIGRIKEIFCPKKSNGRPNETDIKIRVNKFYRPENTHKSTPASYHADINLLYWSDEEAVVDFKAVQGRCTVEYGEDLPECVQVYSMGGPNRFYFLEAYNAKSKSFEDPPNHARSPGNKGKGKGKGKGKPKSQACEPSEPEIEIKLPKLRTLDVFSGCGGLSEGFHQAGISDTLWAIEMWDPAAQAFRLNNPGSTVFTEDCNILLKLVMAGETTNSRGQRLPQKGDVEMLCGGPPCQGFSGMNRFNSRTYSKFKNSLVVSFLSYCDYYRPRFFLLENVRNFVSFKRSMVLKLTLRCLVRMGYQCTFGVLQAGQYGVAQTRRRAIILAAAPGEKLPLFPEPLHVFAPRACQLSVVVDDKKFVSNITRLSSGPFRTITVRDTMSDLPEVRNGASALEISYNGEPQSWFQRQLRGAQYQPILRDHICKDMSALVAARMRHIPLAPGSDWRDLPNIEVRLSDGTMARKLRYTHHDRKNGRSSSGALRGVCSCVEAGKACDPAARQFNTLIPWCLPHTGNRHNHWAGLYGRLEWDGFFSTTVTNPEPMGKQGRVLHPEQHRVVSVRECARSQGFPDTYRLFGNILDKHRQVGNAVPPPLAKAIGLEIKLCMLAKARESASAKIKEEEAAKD
Chain of Induced myeloid leukemia cell differentiation protein Mcl-1 (Q07820 whole entry): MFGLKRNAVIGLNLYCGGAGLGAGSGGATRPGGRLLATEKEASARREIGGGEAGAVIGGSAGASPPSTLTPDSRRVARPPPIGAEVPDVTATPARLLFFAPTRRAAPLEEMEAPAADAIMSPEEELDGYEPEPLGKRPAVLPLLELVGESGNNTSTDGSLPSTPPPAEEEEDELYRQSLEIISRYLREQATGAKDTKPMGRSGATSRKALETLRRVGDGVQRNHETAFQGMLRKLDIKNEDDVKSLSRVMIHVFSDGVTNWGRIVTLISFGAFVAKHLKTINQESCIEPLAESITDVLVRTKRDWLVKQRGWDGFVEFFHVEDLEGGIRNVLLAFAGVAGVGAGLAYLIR

Structure (SMILES): COc1ccc(/C=C2/C(=O)N(c3nc4ccccc4s3)N=C2CSc2ccc(Cl)cc2)cc1
IC50 [5]: 1.69 µM (active)
IC50 [6]: 2.86 µM (active)
EC50 [7]: 3.65 µM (active)
AC50 [8]: 3.01 µM (active)
EC50 [9]: 647 nM (active)

Structure (SMILES): Cc1oc2c(cc(NS(=O)(=O)c3ccc4c5c(cccc35)C(=O)N4)c3ccccc32)c1C(=O)OC(C)C
IC50 [10]: 34.8 µM (not active)
IC50 [11]: 36.7 µM (active)
IC50 [12]: 28.6 µM (active)
IC50 [13]: 63.2 µM (active)
IC50 [14]: 706 nM (not active)

Structure (SMILES): O=C(Nc1ccccc1)C1=C[C@@H](C2CCCCC2)C[C@@H](OCCCCO)O1
IC50 [15]: 47.7 µM (inactive)

Structure (SMILES): CC1=C(C(=O)OCc2ccc3c(c2)OCO3)C(c2cccc([N+](=O)[O-])c2)NC(=O)N1 (stereo unspecified)
IC50 [16]: > 79 µM (inactive)

Structure (SMILES): O=C(Nc1nc2ccc(NS(=O)(=O)c3ccc(Cl)s3)cc2s1)c1ccccc1
IC50 [1]: 2.95 µM (active)
IC50 [2]: 12 µM (active)
IC50 [3]: 3.34 µM (active)
IC50 [4]: 2.65 µM (active)

More lines, main results first:

IC50 [1]: > 99 µM (inactive)
IC50 [2]: > 99 µM (inactive)
IC50 [4]: 46.5 µM (active)
Structure (SMILES): CCOc1ccc2nc(NC(=O)c3ccc(NS(=O)(=O)c4cccs4)cc3)sc2c1
IC50 [3]: > 99 µM (inactive)

IC50 [12]: 14.3 µM (active)
IC50 [13]: 28.3 µM (active)
Structure (SMILES): Oc1ccc(Nc2nc(-c3cccs3)cs2)cc1

IC50 [1]: > 99 µM (inactive)
IC50 [2]: > 99 µM (inactive)
IC50 [4]: > 99 µM (inactive)
Structure (SMILES): CCCCOCCCNC(=O)CNC(=O)c1sc2ccccc2c1Cl
IC50 [3]: > 99 µM (inactive)
